Test results published in patent US20230292780A1, “LISTERIA INHIBITION BY MANGANESE DEPLETION” (Chr. Hansen A/S, priority 2020, published 2023).
Where two headings read alike, the source gives them in different places.

How the values were obtained:
[1] = system: S. thermophilus single strain isolated from Fresco 1000NG-10; details: second Mn-free CDM, 0 to 0.6 ppm manganese, 30° C.
Description: (§1) CDM for growth of Lactococcus lactis and Listeria innocua was prepared as described in Example 1. As to Streptococcus thermophilus, a second Mn-free CDM supporting it growth was prepared essentially as described by Otto et al. (“The relation between growth rate and electrochemical proton gradient of Streptococcus cremoris.” FEMS Microbiology Letters 16.1 (1983): 69-74) with the following exceptions: All metals were used in the same final concentrations as listed in Table 4, and all amino acids were added to a final concentration of 0.08 g/L except for cysteine, which consisted of a final concentration of 0.5 g/L. Wolfe's vitamin solution was used in which DL-Ca-pantothenate was increased to have a final concentration of 400 mg/L, and urea and NaHCO3 were added to a final concentration of 0.12 and 0.42 g, respectively.
(§2) The following strains were tested: • 1. L. lactis single strain isolated from Fresco 1000NG-10 (Chr. Hansen A/S, Denmark) • 2. S. thermophilus single strain isolated from Fresco 1000NG-10 (Chr. Hansen A/S, Denmark) • 3. L. innocua BL 86/26
(§3) All strains were pre-grown to stationary phase cultures from −80° C. glycerol stocks in M17 broth with 1% (w/v) glucose, as standing cultures at 30° C. 1 mL of each culture was then washed twice with and resuspended in manganese-deficient CDM to remove residual manganese. 1 μL of each washed culture was then used to inoculate, in triplicate, a well of a 96-wells plate containing 200 μL CDM supplemented with 1% (w/v) glucose diluted from a 50% (w/v) stock solution dissolved in Milli-Q water, and in which manganese was left out, or added to a final concentration of 0.00006, 0.0006, 0.006, 0.06 or 0.6 mg L-1 manganese. Growth was followed by monitoring the absorbance at 600 nm at 30° C. in a Synergi H1 reader (BioTek, Winooski, VT, USA).

[2] = system: L. lactis single strain isolated from Fresco 1000NG-10; details: CDM, 0 to 0.6 ppm manganese, 30° C.
Description: as §1, §2, §3

L. innocua BL 86/26 = details: CDM, 30° C.
Description: as §1, §2, §3

[3] = system: four Listeria spp. strains (L. monocytogenes DSM 15675, mhl210, ATCC 13932; L. innocua BL 86/26); details: for growth (absorbance at 600 nm): 30° C.
Description: (§4) All the components were dissolved in 700 mL Milli-Q water to minimize traces of manganese, and the pH was set to 6.8 with KOH, after which the volume was adjusted to 1 L and filter-sterilized.
(§5) The following strains were tested: • 1. L. monocytogenes 1: DSM 15675 (obtainable from DSMZ) • 2. L. monocytogenes 2: mhl210 (obtainable from the Copenhagen University from Department of Veterinary and Animal Sciences, Section for Food Safety and Zoonoses) • 3. L. monocytogenes 3: ATCC 13932 (obtainable from ATCC) • 4. L. innocua BL 86/26 • 5. L. lactis subsp. cremoris MG1363 (MoBiTec GmbH, Germany)
(§6) L. innocua BL 86/26 and L. lactis MG1363 were pre-grown from -80° C. glycerol stocks in M17 broth with 1% (w/v) glucose. The three L. monocytogenes were pre-grown from −80° C. glycerol stocks in BHI. All cultures were incubated overnight as standing cultures at 30° C., resulting in stationary phase cultures. The next day, 1 mL of each culture was washed twice with and resuspended in manganese-deficient CDM to remove residual manganese. 1 μL of each washed culture was then used to inoculate, in triplicate, a well of a 96-wells plate containing 200 μL CDM supplemented with 1% glucose diluted from a 50% (w/v) stock solution dissolved in demineralized water, in which manganese was left out, or added to a final concentration of 0.00006, 0.0006, 0.006, 0.06 or 0.6 mg L^−1 manganese. Growth was followed by monitoring the absorbance at 600 nm at 30° C. in a Synergi H1 reader (BioTek, Winooski, VT, USA). This experiment was repeated twice on separate days to check reproducibility.

[4] = system: L. lactis subsp. cremoris MG1363; details: same CDM
Description: as §4, §5, §6

[Mn+2] [manganese]
growth on depletion of manganese [1]: minimally inhibited | growth on depletion of manganese [2]: minimally inhibited | manganese required for growth to occur (L. innocua BL 86/26): more than 0.0006 ppm | growth (absorbance at 600 nm) ([3]; 0.0006 ppm manganese added to CDM): severely hampered | growth (absorbance at 600 nm) ([3]; 0.006 ppm manganese added to CDM): some growth defects | growth (absorbance at 600 nm) ([3]; 0.06 ppm manganese added to CDM): no growth defect | growth (absorbance at 600 nm) ([3]; 0.6 ppm manganese added to CDM): no growth defect | manganese concentration below which inhibition of Listeria can be seen ([3]; CDM): below 0.006 ppm | manganese concentration that restored the growth of Listeria ([3]; CDM): above 0.006 ppm | time the inhibitory effect due to low manganese levels is maintained ([3]; low manganese levels in CDM): at least 20 hours | growth on depletion of manganese [4]: hardly inhibited
